{"source": "patent US5306620A", "about": "“Antibodies that bind to a ligand-induced binding site on integrin and induce integrin activation” (The Scripps Research Institute, priority 1990, dated 1994)", "key": {"[1]": {"target": "T1, αIIb β3 on A5 cells (Homo sapiens, UniProt P05106+P08514)", "T1 construct": "expressed in transfected cells", "T1 sequence (P08514 32-887 limits assumed)": "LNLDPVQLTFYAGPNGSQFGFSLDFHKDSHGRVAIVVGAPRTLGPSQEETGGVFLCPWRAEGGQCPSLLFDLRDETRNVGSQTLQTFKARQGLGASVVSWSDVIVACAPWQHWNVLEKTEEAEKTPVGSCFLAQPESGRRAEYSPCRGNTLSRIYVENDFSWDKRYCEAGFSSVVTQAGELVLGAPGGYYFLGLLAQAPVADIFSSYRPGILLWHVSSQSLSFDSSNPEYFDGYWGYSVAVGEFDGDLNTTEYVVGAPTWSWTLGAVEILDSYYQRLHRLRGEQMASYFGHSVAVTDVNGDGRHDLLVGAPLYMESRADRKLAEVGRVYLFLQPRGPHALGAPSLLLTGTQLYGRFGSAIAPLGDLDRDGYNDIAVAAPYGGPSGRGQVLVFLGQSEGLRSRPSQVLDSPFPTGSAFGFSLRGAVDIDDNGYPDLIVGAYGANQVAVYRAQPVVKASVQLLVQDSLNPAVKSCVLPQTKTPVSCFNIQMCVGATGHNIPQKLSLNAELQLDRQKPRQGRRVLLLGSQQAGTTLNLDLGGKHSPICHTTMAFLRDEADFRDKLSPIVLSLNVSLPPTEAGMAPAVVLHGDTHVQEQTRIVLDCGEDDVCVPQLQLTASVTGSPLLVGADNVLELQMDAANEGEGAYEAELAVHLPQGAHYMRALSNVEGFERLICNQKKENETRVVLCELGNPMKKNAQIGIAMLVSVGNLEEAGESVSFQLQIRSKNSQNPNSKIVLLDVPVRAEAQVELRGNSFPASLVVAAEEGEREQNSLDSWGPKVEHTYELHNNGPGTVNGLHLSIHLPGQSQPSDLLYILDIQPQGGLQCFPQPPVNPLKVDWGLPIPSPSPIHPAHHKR", "T1 sequence (P08514 891-1039 partner limits assumed)": "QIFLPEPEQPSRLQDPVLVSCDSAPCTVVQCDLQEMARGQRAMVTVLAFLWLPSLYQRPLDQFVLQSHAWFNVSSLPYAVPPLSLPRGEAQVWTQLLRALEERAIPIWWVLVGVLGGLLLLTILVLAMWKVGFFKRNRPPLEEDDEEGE", "T1 sequence (P05106 27-788)": "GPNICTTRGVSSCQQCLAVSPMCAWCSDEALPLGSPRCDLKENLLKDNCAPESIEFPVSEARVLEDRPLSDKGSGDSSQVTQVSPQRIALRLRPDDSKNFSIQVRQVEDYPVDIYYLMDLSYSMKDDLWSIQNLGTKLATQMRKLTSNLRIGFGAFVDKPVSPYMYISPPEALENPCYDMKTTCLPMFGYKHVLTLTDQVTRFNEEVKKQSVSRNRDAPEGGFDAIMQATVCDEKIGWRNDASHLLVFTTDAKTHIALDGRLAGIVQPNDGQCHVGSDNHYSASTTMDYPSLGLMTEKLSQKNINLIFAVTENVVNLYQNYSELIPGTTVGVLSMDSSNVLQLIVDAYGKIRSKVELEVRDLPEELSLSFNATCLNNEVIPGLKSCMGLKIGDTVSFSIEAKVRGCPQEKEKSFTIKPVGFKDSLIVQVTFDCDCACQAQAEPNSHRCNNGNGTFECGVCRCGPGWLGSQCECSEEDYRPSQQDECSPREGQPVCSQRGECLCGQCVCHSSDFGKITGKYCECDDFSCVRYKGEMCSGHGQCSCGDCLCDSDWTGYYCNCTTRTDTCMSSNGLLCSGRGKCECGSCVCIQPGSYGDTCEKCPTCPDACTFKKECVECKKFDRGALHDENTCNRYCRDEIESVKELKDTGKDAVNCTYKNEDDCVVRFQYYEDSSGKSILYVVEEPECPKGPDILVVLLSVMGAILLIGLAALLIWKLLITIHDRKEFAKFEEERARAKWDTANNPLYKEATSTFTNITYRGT", "test": "Soluble 125I-fibrinogen binding to A5 cells", "format": "cell-based", "experimental": "FIG. 4 illustrates the equilibrium binding of soluble fibrinogen (Fg) to Ab-62 stimulated (activated) A5 cells when measured as in Example 10. A5 cells at a concentration of 10^6 per ml were admixed with 6 uM of Sepharose-purified AB-62 and maintained at 22 C. for 30 minutes to activate the integrin. Iodinated Fg was then admixed in varying concentrations from 0.01 to 1 nM. After a 60 minute maintenance period, the bound ligand was separated from free ligand by centrifugation through 0.3 ml of 20% sucrose. The amount of radiolabelled ligand associated with the cell pellet was determined by gamma detection. Saturable binding was measured in three different experiments and plotted versus the input Fg concentration to obtain an averaged profile. A Scatchard replot of the binding data was made and is shown in the insert.\nAn independent measure of integrin activation was made by detecting the ability of a cell containing the integrin to bind soluble fibrinogen (Fg) that had been labelled with ^125 I. Fg was isolated and labelled with ^125 I by standard methods as described by Marguerie et al., J. Biol. Chem., 255:154-161 (1980) to form ^125 I-Fg. Thereafter, the binding of ^125 I-Fg to transfected cells was assayed as described previously for platelets [Marguerie et al., J. Biol. Chem., 255:154-161 (1980)]. Binding was initiated by the addition of cells to radiolabelled Fg and incubation at 37 degrees for 30 minutes. Bound ligand was separated from free ligand by centrifugation through 0.3 ml of 20% sucrose and the amount of radiolabelled ligand associated with the cell pellet determined by gamma detection.\nBackground binding in this assay detected about 30,000 molecules of Fg bound per integrin bearing cell, whereas maximum Ab-62 stimulated A5 cells bound about 95,000 molecules of Fg per cell.\nEquilibrium binding of soluble Fg to Ab-62 stimulated (activated) A5 cells was carried out to better characterize Fg binding. […] A5 cells (10^6 per ml) were incubated with 6 uM Sepharose-purified Ab-62 for 30 minutes at 22 C. to activate the integrin. Thereafter ^125 I-Fg was admixed in varying concentrations from 0.01 to 1 nM. After 60 minutes, bound Fg was measured as described above after centrifugation of the cells through sucrose.\nSaturable binding was measured in three different experiments and plotted versus the input Fg concentration to obtain average data which is shown in FIG. 4. A Scatchard replot of the binding data was also made and is shown in the inset to FIG. 4. The binding of the various concentrations of Fg to activated A5 cells at steady state was analyzed by use of the \"Ligand\" computer program. […] There was day to day variation in the quantity of αIIb β3 expressed as measured by the binding of the 2G12 antibody (150,000 to 440,000 sites/cell) as well as in the number of Fg receptors (138,000 to 360,000 sites/cell). The ratio of Fg receptors to αIIb β3 expressed per cell on a given day was 0.83±0.05, thus virtually all of the recombinant αIIb β3 was functional with respect to Fg binding."}, "[2]": {"target": "T1, αIIb β3 on A5 cells", "test": "Binding of fibrinogen-coated fluorescent beads to A5 cells", "format": "cell-based", "details": "2 mM peptide", "experimental": "Immobilized Fg was prepared by coating […] fluorescent latex beads (Fluoricon Fluorescent Particles, Baxter, McGraw Park, Ill.). These beads were prepared by incubating 1 mg of purified Fg with 650 ul of Fluoricon beads for 1 hour at room temperature. The beads were pelleted, resuspended in 1 ml of 30 mM Tris pH 7.4, 170 mM NaCl and 1% BSA, and stored at 4 degrees until ready for use. The binding of these particles to transfected cells was assessed by incubating 5×10^5 cells with 25 ul of beads in the presence or absence of polypeptide inhibitors for 30 minutes at room temperature. The solution was layered over a 6% BSA cushion, spun 5 minutes in a microfuge and the pelleted cells resuspended in 500 ul of Tyrodes and subjected to FACS analysis as described in Example 7."}, "[3]": {"target": "T2, GPIIb-IIIa on platelets (Homo sapiens, UniProt P05106+P08514)", "T2 construct": "endogenous in cells; host or cells: platelets", "T2 sequence (P08514 32-887 limits assumed)": "as the sequence (P08514 32-887 limits assumed) above", "T2 sequence (P08514 891-1039 partner limits assumed)": "as the sequence (P08514 891-1039 partner limits assumed) above", "T2 sequence (P05106 27-788)": "as the sequence (P05106 27-788) above", "test": "125I-anti-LIBS1 binding to washed platelets with peptide ligands", "details": "peptide 0.8 mM; stimulated and unstimulated platelets", "experimental": "FIG. 2 illustrates anti-LIBS1 binding to platelets expressing a cryptic antigenic determinant as described in Example 5. Varied concentrations of ^125 I-anti-LIBS1 were bound at 37 C. for 30 minutes to gel-filtered platelets in the presence of no peptide (inverted triangle), 0.8 mM GRGESP (squares), 0.8 mM GRGDSP (triangles) or GRGDSP and 10 uM ADP (circles). Bound radioactivity was separated from free by spinning the platelets through a layer of sucrose.\nWashed platelets were isolated as described in Example 1A, and were resuspended in 2 ml of calcium-free Tyrode's buffer (0.13 M NaCl, 0.0026 M KCl 0.002M MgCl2. 6H2 O, 5 mM Hepes, 0.012 M NaHCO3, pH 7.2) which was first treated by admixture with Chelex 100 (200-400 mesh sodium form, Bio-Rad Laboratories, Richmond, Calif.), maintained to complex any divalent cations present in the Tyrode's buffer and filtered to remove the complexed divalent cations from the buffer. The platelet suspension was then applied to a Sepharose CL2B column (40 ml total bed volume, Pharmacia, Inc., Piscataway, N.J.) equilibrated with the same Tyrode's buffer. […] The label containing immunoreaction products were then separated from non-bound ^125 I-labeled antibody by centrifugation of the platelet aliquot through a sucrose cushion as described in Example 4, and the platelet-associated radioactivity was determined as before."}, "[4]": {"target": "T3, solubilized αIIb β3 from platelets (Homo sapiens, UniProt P05106+P08514)", "T3 construct": "αIIb β3 was solubilized from platelets; endogenous in cells; host or cells: human platelets, octylglucoside lysate", "T3 sequence (P08514 32-887 limits assumed)": "as the sequence (P08514 32-887 limits assumed) above", "T3 sequence (P08514 891-1039 partner limits assumed)": "as the sequence (P08514 891-1039 partner limits assumed) above", "T3 sequence (P05106 27-788)": "as the sequence (P05106 27-788) above", "test": "Solution phase assay: 125I-Fg binding to solubilized αIIb β3", "format": "biochemical", "experimental": "To determine if activating antibodies could activate αIIb β3 extracted away f rom the membrane milieu, the activating capacity to stimulate Fg binding in a solution phase was assayed. In this assay, αIIb β3 was solubilized from platelets, incubated in the presence or absence of activating monoclonal antibodies, and then bound to microtiter plates coated with a non-activating monoclonal anti β3 antibody.\nThe platelet pellet was resuspended and solubilized in ice cold 10 mM Hepes containing 150 mM NaCl, 50 mM octyl-B-D-glucoypyranoside (Calbiochem, La Jolla, Calif.) 1 mm PMSF, 50 ng/ml PGE, 1 mM CaCl2, 1 mM MgCl2, 50 uM leupeptin and 1 mg/ml N-ethylmaleimide (Sigma, St. Louis, Mo.) and centrifuged at 100,000 g for 30 minutes. […] The microtiter wells were incubated at 4 C. overnight, washed twice with a modified Tyrodes-Hepes buffer (2.5 mM Hepes, 150 mM NaCl, 2.5 mM KCl, 1 mM MgCl2, 12 mM NaHCO3, 5.5 mM D-glucose and 1 mg/ml BSA, pH 7.4) containing 50 MM octyl-B-D-glucopyranoside and 0.1 uM activating monoclonal antibody and then twice in Tyrodes-Hepes buffer only to form αIIb β3 -bound microtiter wells. […] Bound radioactivity was counted after 2 washes with Tyrodes-Hepes buffer."}, "[5]": {"test_system": "αIIb β3 and αv β3", "test": "Peptide ligand recognition by recombinant β3 integrins", "format": "binding, human"}}, "note": "Residues, ends and D or L forms follow the SMILES beside them."}
{"smiles": "N=C(N)NCCC[C@H](NC(=O)CN)C(=O)NCC(=O)N[C@@H](CC(=O)O)C(=O)N[C@@H](CO)C(=O)N1CCC[C@H]1C(=O)O", "note": "[GRGDSP, Gly-Arg-Gly-Asp-Ser-Pro]", "values": [{"measurement": "inhibition of soluble 125I-Fg binding to activated A5 cells", "setting": "[1]", "result": "inhibited"}, {"measurement": "adherence of A5 cells to Fg-coated microspheres", "setting": "[2]", "result": "inhibited"}, {"measurement": "induction of LIBS1 cryptic antigenic determinant on platelets by peptide ligand", "setting": "[3]", "result": "will express a LIBS1 cryptic antigenic determinant"}, {"measurement": "inhibition of Fg binding to stimulated captured receptor", "setting": "[4]", "result": "inhibition"}]}
{"smiles": "CC(C)C[C@H](N)C(=O)NCC(=O)NCC(=O)N[C@@H](C)C(=O)N[C@@H](CCCCN)C(=O)N[C@@H](CCC(N)=O)C(=O)N[C@@H](C)C(=O)NCC(=O)N[C@@H](CC(=O)O)C(=O)N[C@H](C(=O)O)C(C)C", "note": "[Mab L10, LGGAKQAGDV] (H-LGGAKQAGDV-OH)", "values": [{"measurement": "recognition of peptide by αIIb β3 versus αv β3", "setting": "[5]", "result": "recognized better by αIIb β3 than by αv β3"}]}
